Source: ChEMBL document CHEMBL1157052, “Novel cyclic-imide peptidomimetics as aminopeptidase N inhibitors. Structure-based design, chemistry and activity evaluation. II” (Eur J Med Chem, 2010)
Active and inactive are the calls of the source. No cut-off for these calls is given here.

Columns and labels:
[1] = molecular target: Aminopeptidase N (Sus scrofa) (UniProt P15145); experiment: Inhibition of aminopeptidase N
[2] = test system: K562; experiment: Antiproliferative activity against human K562 cells at 400 ug/ml after 48 hrs by MTT assay; assay type: functional, cell-based
[3] = test system: HL-60; experiment: Antiproliferative activity against human HL60 cells after 48 hrs by MTT assay; conditions: HL-60, 48 h
[4] = test system: H22; experiment: Antimetastatic activity against mouse H22 cells transplanted in mouse lung assessed as inhibition of tumor growth on the surface of lungs at 50 mg/kg/day, po for 6 days a week for 2 weeks; assay type: functional; conditions: read-out: TGI
[5] = Antimetastatic activity against human ES2 cells xenografted in mouse lung assessed as inhibition of tumor growth at 10 mg/kg/day, po for 6 days a week for 2 weeks; assay type: functional; conditions: ES-2, read-out: TGI
[6] = Antimetastatic activity against human ES2 cells xenografted in mouse lung assessed as inhibition of tumor growth at 50 mg/kg/day, po for 6 days a week for 2 weeks; assay type: functional; conditions: ES-2, read-out: TGI

Sequence of Aminopeptidase N (Sus scrofa) (P15145 whole entry, looked up): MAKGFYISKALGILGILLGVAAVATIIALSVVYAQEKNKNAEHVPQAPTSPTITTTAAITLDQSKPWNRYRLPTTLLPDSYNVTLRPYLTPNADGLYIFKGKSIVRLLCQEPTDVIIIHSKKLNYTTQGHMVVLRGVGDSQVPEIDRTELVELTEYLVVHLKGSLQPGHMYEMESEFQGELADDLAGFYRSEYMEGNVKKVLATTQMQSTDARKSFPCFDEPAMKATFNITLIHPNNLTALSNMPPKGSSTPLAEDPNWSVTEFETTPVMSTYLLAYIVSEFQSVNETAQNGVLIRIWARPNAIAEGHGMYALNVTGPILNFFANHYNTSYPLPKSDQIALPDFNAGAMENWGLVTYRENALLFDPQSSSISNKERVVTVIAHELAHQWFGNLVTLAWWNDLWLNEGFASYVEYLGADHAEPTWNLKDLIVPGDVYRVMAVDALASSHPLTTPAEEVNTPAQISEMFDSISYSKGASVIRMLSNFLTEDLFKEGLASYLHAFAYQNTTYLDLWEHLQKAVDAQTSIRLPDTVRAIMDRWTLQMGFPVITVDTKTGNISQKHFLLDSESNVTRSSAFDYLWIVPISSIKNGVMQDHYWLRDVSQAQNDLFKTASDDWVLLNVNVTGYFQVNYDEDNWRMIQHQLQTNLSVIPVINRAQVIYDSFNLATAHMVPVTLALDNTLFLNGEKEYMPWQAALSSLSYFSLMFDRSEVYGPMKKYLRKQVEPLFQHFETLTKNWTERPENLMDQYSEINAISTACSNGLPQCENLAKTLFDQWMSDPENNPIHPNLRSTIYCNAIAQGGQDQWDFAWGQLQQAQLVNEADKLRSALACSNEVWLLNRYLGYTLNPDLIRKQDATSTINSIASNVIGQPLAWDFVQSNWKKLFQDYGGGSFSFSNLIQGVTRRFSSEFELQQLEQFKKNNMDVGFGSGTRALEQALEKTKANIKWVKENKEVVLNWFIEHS

| Structure (SMILES) | IC50 [1] [µM] | Activity [2] | IC50 [3] [µM] | inhibition in vivo at 50 mg/kg/day [4] [%] | inhibition in vivo at 10 mg/kg/day [5] [%] | inhibition in vivo at 50 mg/kg/day [6] [%] |
| --- | --- | --- | --- | --- | --- | --- |
| COc1cc(C(=O)N[C@H]2CCC(=O)N(CC(=O)NO)C2=O)cc(OC)c1OC | 3.1 | – | – | – | – | – |
| N[C@@H](Cc1ccccc1)C(=O)N[C@H]1CCC(=O)N(CC(=O)NO)C1=O | – | inactive | 105 | 72.9 | 30.9 | – |
| CC(C)C[C@H](NC(=O)[C@@H](O)[C@H](N)Cc1ccccc1)C(=O)O [UBENIMEX] | – | – | – | 45.4 | – | 36.2 |
| N[C@@H](Cc1ccc(O)cc1)C(=O)N[C@H]1CCC(=O)N(CC(=O)NO)C1=O | – | – | 147 | 62.7 | – | – |
